Bridges are numbered along the chain shown (N, C = ends). Where no end group is shown, it is not given here.
B1: [Phe-44]hAM(13-52) (peptide)
peptide: SFGCRFGTCTVQKLAHQIYQFTDKDKDNVAPFSKISPQGY-NH2
modifications: disulfide 4-9; N-terminus assumed
SMILES: CC[C@H](C)[C@H](NC(=O)[C@H](CCC(N)=O)NC(=O)[C@H](Cc1c[nH]cn1)NC(=O)[C@H](C)NC(=O)[C@H](CC(C)C)NC(=O)[C@H](CCCCN)NC(=O)[C@H](CCC(N)=O)NC(=O)[C@@H](NC(=O)[C@@H](NC(=O)[C@@H]1CSSC[C@H](NC(=O)CNC(=O)[C@H](Cc2ccccc2)NC(=O)[C@@H](N)CO)C(=O)N[C@@H](CCCNC(=N)N)C(=O)N[C@@H](Cc2ccccc2)C(=O)NCC(=O)N[C@@H]([C@@H](C)O)C(=O)N1)[C@@H](C)O)C(C)C)C(=O)N[C@@H](Cc1ccc(O)cc1)C(=O)N[C@@H](CCC(N)=O)C(=O)N[C@@H](Cc1ccccc1)C(=O)N[C@H](C(=O)N[C@@H](CC(=O)O)C(=O)N[C@@H](CCCCN)C(=O)N[C@@H](CC(=O)O)C(=O)N[C@@H](CCCCN)C(=O)N[C@@H](CC(=O)O)C(=O)N[C@@H](CC(N)=O)C(=O)N[C@H](C(=O)N[C@@H](C)C(=O)N1CCC[C@H]1C(=O)N[C@@H](Cc1ccccc1)C(=O)N[C@@H](CO)C(=O)N[C@@H](CCCCN)C(=O)N[C@H](C(=O)N[C@@H](CO)C(=O)N1CCC[C@H]1C(=O)N[C@@H](CCC(N)=O)C(=O)NCC(=O)N[C@@H](Cc1ccc(O)cc1)C(N)=O)[C@@H](C)CC)C(C)C)[C@@H](C)O

How the values were obtained:
in vivo = settings: male, Wistar, rat, plasma, sc, 50 nmol/kg
Experimental: Eight-week-old male Wistar rats were purchased from Charles River Laboratories Japan, Inc. The rats were grown with normal feeds in the absence of specific pathogens under cycles of a 12-hour light period and a 12-hour dark period. […] To determine plasma AM concentrations, 50 nmol/kg of AM or an AM analog was subcutaneously administered. A peripheral blood sample was collected from the tail vein into a test tube (containing 21 μg of aprotinin and 0.3 mg of EDTA-2Na) at predetermined times (0, 15, 30, 60, and 120 minutes after administration). The test tube was centrifuged at 1,700×g to afford plasma.

in vitro [1] = settings: serum, pH 7.1
Experimental: (§1) After the lapse of a predetermined time, a 30-μl portion was taken out of the reaction solution, transferred into 170 μl of 0.1% aqueous solution of trifluoroacetic acid (TFA), and stored at −80° C. until analysis.
(§2) Quantitative analysis was performed for AM contained in the thus-obtained samples of a reaction mixture with serum or plasma by using specific fluoroimmunoassay (Tosoh Corporation) with two antibodies differing in their recognition sites. […] In the figure, the abscissa represents reaction time (min), and the ordinate represents concentration of AM (UM).
In the figure, the abscissa represents reaction time (min), and the ordinate represents concentration of AM or an AM analog (μM).
In the figure, the abscissa represents the type of AM or an AM analog, and the ordinate represents residual rates of AM or an AM analog (%).

in vitro [2] = settings: Experiment VIII; 10^−7 M, 37° C.; 1 hour after the beginning of reaction
in vitro [3] = settings: plasma, pH 7.1
Experimental: as §1, §2

[4] = molecular target: AM type 1 receptor (AMI receptor) (UniProt Q16602 23-461; O60895 43-175, limits assumed); test: cell-based or functional assay
Sequence of AM type 1 receptor (AMI receptor) (Q16602 23-461 limits assumed, chain 1 of 2): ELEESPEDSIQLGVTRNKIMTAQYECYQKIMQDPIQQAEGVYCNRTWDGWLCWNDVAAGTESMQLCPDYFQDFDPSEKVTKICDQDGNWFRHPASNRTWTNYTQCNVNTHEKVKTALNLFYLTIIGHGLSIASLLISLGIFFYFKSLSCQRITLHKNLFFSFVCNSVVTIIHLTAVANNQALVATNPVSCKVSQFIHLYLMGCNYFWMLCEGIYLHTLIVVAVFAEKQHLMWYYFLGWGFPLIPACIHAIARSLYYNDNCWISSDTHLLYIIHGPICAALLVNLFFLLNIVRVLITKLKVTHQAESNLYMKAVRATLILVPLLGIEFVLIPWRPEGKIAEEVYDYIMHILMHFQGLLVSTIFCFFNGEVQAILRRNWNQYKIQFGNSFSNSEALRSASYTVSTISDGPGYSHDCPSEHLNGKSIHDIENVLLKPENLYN
Sequence of AM type 1 receptor (AMI receptor) (O60895 43-175 limits assumed, chain 2 of 2): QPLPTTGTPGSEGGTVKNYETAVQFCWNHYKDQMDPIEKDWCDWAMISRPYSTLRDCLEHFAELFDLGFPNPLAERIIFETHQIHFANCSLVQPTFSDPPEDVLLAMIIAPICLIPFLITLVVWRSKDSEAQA

Molecule | half-life (in vivo) [h] | remaining at 4 h (in vitro [1]) [%] | presence in reaction mixture with human serum (in vitro [2]) | remaining at 4 h (in vitro [3]) [%] | logarithmic values of 50%-effective concentration (pEC50) for intracellular cAMP concentration-increasing activity [4] [pEC50]
CC[C@H](C)[C@H](NC(=O)[C@H](CCC(N)=O)NC(=O)[C@H](Cc1c[nH]cn1)NC(=O)[C@H](C)NC(=O)[C@H](CC(C)C)NC(=O)[C@H](CCCCN)NC(=O)[C@H](CCC(N)=O)NC(=O)[C@@H](NC(=O)[C@@H](NC(=O)[C@@H]1CSSC[C@H](NC(=O)CNC(=O)[C@H](Cc2ccccc2)NC(=O)[C@H](CO)NC(=O)[C@H](CCCNC(=N)N)NC(=O)[C@H](CC(C)C)NC(=O)CNC(=O)[C@H](CCC(N)=O)NC(=O)[C@H](Cc2ccccc2)NC(=O)[C@H](CC(N)=O)NC(=O)[C@H](CC(N)=O)NC(=O)[C@H](CCSC)NC(=O)[C@H](CO)NC(=O)[C@H](CCC(N)=O)NC(=O)[C@H](CCCNC(=N)N)NC(=O)[C@@H](N)Cc2ccc(O)cc2)C(=O)N[C@@H](CCCNC(=N)N)C(=O)N[C@@H](Cc2ccccc2)C(=O)NCC(=O)N[C@@H]([C@@H](C)O)C(=O)N1)[C@@H](C)O)C(C)C)C(=O)N[C@@H](Cc1ccc(O)cc1)C(=O)N[C@@H](CCC(N)=O)C(=O)N[C@@H](Cc1ccccc1)C(=O)N[C@H](C(=O)N[C@@H](CC(=O)O)C(=O)N[C@@H](CCCCN)C(=O)N[C@@H](CC(=O)O)C(=O)N[C@@H](CCCCN)C(=O)N[C@@H](CC(=O)O)C(=O)N[C@@H](CC(N)=O)C(=O)N[C@H](C(=O)N[C@@H](C)C(=O)N1CCC[C@H]1C(=O)N[C@@H](CCCNC(=N)N)C(=O)N[C@@H](CO)C(=O)N[C@@H](CCCCN)C(=O)N[C@H](C(=O)N[C@@H](CO)C(=O)N1CCC[C@H]1C(=O)N[C@@H](CCC(N)=O)C(=O)NCC(=O)N[C@@H](Cc1ccc(O)cc1)C(N)=O)[C@@H](C)CC)C(C)C)[C@@H](C)O [hAM(1-52), YRQSMNNFQGLRSFGCRFGTCTVQKLAHQIYQFTDKDKDNVAPRSKISPQGY-CONH2, reference compound] | 1.23 | 0.2 | substantially disappeared | 85 | 
B1 |  |  |  |  | 8.29

Reference: patent US12637499B2, “Adrenomedullin analog, method for producing the same, and pharmaceutical use thereof” (priority 2020, dated 2026)
